# Assay results from publication PMC10765884, “MC180295 is a highly potent and selective CDK9 inhibitor with preclinical in vitro and in vivo efficacy in cancer” (Clinical Epigenetics, 2024).
# Read-outs that look alike come from different tables or passages of the source.
# Experiments:
# [1] = tested on: HT29 cells; test: HT29 colon cancer xenograft in NSG mice; type: in vivo; conditions: HT29 s.c. in NSG mice, 20 mg/kg i.p. q.o.d.
# Protocol: Fig. 3 Antitumor, survival, and metabolic effects of MC180295 and its enantiomers, MC180379 and MC180380. A Antitumor effects of MC180295, MC180379, and MC180380. NSG mice were inoculated (s.c.) with 2 × 10^6 SW48 cells. Eleven days later, when tumors were palpable, 20 mg/kg MC180295, MC180379, MC180380, or vehicle were administered (i.p.) every other day (q.o.d.). Tumor sizes were measured using a caliper. […] C Antitumor effects of MC180379 and MC180380. NSG mice were inoculated (s.c.) with 1 × 10^6 HT29 cells. Twelve days later, when tumors were palpable, 20 mg/kg MC180379, MC180380, or vehicle were administered (i.p.) q.o.d. Tumor sizes were measured using a caliper. D HT29-xenografted mouse survival following (i.p.) q.o.d. dosing with 20 mg/kg MC180379 or MC180380. E NSG mice were inoculated (i.p.) with 5 × 10^5 MV4-11-luc cells. Four days later, when substantial tumor burden was evident by bioluminescence imaging, MC180379, MC180380, or vehicle were administered (i.p.) q.o.d at 20 mg/kg. Luciferase expression was quantified and calculated. F Mouse survival in days. […] G In vitro liver microsome stability and rat hepatocyte/Sprague–Dawley stability assay comparing MC180379 to MC180380. The dog breed was beagle and the mouse microsome strain was CD-1. […] Significances were calculated using log-rank (Mantel-Cox) or Student’s t tests. […]
# [2] = biological target: T1, CDK9/cyclin K (Homo sapiens, UniProt P50750); test: CDK enzymatic assay; type: biochemical; conditions: Fig. 1A
# T1 construct: purchased Reaction Biology Corp
# Protocol: (§1) CDK enzymatic assays were performed by Reaction Biology Corp. (Malvern, PA), using 10 µM ATP for determining MC180295 IC50 values for each CDK family member for which assays were available. Kinase enzymatic assays were also performed by Nanosyn (Santa Clara, CA), using microfluidic technology and MC180295 IC50 curves against 10 CDKs. Selectivity against CDK9 was confirmed for the enantiomers at Reaction Biology Corp. (Malvern, PA).
# [3] = biological target: CDK9/cyclin T (Homo sapiens, UniProt P50750); test: CDK9/cyclin T inhibition, two independent assays; type: biochemical
# Protocol: as §1
# [4] = Pharmacokinetics in rats; type: in vivo; conditions: rat, plasma, iv, 1 mg/kg; for AUC(0-t): read-out: AUC24hr; for Vd: read-out: Vss
# CDK9/cyclin T, sequence (O60563 whole entry): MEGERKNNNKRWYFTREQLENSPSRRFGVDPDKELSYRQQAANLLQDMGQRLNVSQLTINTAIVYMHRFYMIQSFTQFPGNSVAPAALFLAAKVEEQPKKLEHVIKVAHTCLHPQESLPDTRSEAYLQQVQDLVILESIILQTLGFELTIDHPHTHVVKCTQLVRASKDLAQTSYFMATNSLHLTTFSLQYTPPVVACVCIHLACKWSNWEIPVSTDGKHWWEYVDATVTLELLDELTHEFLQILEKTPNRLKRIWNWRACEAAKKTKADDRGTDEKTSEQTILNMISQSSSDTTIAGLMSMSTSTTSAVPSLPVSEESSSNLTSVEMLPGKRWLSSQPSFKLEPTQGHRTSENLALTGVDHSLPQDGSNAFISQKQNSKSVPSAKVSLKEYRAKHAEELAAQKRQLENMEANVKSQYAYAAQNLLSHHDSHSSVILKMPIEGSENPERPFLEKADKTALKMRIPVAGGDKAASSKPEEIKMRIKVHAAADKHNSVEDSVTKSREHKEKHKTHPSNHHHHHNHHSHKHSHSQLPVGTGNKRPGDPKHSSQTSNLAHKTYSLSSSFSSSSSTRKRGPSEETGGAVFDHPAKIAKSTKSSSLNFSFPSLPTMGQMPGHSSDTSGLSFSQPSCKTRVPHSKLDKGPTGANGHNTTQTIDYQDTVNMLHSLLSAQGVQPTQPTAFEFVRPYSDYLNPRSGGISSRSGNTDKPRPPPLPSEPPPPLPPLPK
# CDK9/cyclin T, sequence (P50750 whole entry): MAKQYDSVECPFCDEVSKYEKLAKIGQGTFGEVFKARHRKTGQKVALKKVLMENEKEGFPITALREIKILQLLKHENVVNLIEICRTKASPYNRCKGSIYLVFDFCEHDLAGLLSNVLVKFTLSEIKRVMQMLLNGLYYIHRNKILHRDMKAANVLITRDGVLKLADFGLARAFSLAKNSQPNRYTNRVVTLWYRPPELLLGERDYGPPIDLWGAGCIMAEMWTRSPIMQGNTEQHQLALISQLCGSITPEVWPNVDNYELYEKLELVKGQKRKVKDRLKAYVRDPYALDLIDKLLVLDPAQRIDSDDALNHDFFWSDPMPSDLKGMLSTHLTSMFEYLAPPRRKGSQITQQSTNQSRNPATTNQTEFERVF
# T1 sequence (P50750 whole entry): as above
# T1 sequence (O75909 whole entry partner): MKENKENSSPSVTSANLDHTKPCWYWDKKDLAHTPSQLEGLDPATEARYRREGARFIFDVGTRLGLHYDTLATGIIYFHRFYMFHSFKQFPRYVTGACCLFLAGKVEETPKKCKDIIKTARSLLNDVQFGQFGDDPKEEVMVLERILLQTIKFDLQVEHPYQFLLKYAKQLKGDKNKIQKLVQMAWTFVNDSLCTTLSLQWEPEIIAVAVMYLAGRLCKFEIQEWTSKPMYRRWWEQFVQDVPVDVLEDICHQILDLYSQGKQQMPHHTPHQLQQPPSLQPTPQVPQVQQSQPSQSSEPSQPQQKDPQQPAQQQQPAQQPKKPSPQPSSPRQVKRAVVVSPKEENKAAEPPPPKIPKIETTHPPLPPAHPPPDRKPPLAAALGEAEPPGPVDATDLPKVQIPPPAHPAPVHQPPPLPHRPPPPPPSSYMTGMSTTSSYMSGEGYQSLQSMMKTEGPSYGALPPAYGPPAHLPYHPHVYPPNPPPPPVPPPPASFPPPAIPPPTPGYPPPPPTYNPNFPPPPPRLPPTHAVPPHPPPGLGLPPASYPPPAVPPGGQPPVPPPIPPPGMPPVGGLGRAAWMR
compound,measurement,setting,value
Nc1nc(N[C@H]2C[C@@H]3CC[C@H]2C3)sc1C(=O)c1ccccc1[N+](=O)[O-] [MC180380],survival,[1],extending survival longer than MC180379
Nc1nc(N[C@H]2C[C@@H]3CC[C@H]2C3)sc1C(=O)c1ccccc1[N+](=O)[O-] (relative stereo) [MC180295],IC50,[2],49 nM
same,"selectivity for CDK9, compared to other CDKs",[3],20 fold
same,IC50,"[3]; based on two independent assays, read-out: IC50 toward CDK9/cyclin T",3 to 12 nM
same,half-life,"[4]; given IV to rats, read-out: half-life (converted)",~14 h
same,Cmax,"[4]; rats, IV 1 mg/kg, Mean",635 ng/mL
same,clearance,"[4]; rats, IV 1 mg/kg, Mean",5.2 mL/min
same,AUC(0-t),"[4]; rats, IV 1 mg/kg, Mean",679 ng·h/mL
same,half-life,"[4]; rats, IV 1 mg/kg, Mean, read-out: T1/2 (converted)",14 h
same,Vd,"[4]; rats, IV 1 mg/kg, Mean",4.46 L
same,Cmax,"[4]; rats, IV 1 mg/kg, Rat -1",385 ng/mL
same,clearance,"[4]; rats, IV 1 mg/kg, Rat -1",6.4 mL/min
same,AUC(0-t),"[4]; rats, IV 1 mg/kg, Rat -1",470 ng·h/mL
same,half-life,"[4]; rats, IV 1 mg/kg, Rat -1, read-out: T1/2 (converted)",17.9 h
same,Vd,"[4]; rats, IV 1 mg/kg, Rat -1",6.87 L
same,Cmax,"[4]; rats, IV 1 mg/kg, Rat -2",568 ng/mL
same,clearance,"[4]; rats, IV 1 mg/kg, Rat -2",5.1 mL/min
same,AUC(0-t),"[4]; rats, IV 1 mg/kg, Rat -2",687 ng·h/mL
same,half-life,"[4]; rats, IV 1 mg/kg, Rat -2, read-out: T1/2 (converted)",9.98 h
same,Vd,"[4]; rats, IV 1 mg/kg, Rat -2",3.74 L
same,Cmax,"[4]; rats, IV 1 mg/kg, Rat -3",951 ng/mL
same,clearance,"[4]; rats, IV 1 mg/kg, Rat -3",4.1 mL/min
same,AUC(0-t),"[4]; rats, IV 1 mg/kg, Rat -3",879 ng·h/mL
same,half-life,"[4]; rats, IV 1 mg/kg, Rat -3, read-out: T1/2 (converted)",14 h
same,Vd,"[4]; rats, IV 1 mg/kg, Rat -3",2.76 L
